# pIC50: −log10 of the molar value.
# Experiments:
# [1] = molecular target: T1, Ephrin type-A receptor 6 (Homo sapiens) (UniProt Q9UF33); test: Selectivity interaction (Ambit KINOMEscan and KiNATiv profiling in Jurkat cells) EUB0000090b EPHA6; assay type: cell-based; details: at 1 µM
# T1 sequence (whole entry): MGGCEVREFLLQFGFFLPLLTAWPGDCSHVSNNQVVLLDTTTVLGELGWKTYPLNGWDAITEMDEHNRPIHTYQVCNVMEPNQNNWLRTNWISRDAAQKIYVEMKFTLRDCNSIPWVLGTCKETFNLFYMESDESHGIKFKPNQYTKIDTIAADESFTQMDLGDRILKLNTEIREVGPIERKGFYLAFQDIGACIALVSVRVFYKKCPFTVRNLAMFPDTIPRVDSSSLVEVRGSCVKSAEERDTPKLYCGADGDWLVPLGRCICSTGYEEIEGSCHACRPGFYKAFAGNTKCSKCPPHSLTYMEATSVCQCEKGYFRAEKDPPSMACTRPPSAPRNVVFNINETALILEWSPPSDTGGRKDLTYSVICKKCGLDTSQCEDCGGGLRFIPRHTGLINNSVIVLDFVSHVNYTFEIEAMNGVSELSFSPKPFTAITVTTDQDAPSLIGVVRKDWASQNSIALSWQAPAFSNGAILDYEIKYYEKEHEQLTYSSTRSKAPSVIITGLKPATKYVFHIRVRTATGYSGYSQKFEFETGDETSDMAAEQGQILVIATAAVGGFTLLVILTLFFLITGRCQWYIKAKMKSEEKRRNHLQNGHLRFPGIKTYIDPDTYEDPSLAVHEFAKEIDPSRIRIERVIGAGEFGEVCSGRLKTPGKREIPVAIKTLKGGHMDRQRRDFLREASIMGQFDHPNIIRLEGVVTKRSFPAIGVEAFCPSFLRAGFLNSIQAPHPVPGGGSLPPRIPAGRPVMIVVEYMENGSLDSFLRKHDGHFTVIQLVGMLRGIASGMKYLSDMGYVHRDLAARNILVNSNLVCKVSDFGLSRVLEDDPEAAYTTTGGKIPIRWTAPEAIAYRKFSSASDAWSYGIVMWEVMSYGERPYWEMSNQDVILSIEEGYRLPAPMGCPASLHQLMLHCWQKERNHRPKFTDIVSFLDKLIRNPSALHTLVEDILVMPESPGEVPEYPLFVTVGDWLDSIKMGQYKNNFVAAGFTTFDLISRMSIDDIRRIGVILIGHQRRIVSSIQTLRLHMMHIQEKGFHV
# [2] = system: Hepatocyte growth factor receptor (Homo sapiens), P08581 [M1250T]; test: (§1) Selectivity interaction (KinomeScan (DiscoverX)) EUB0000655a MET; details: at 10 µM
# [3] = system: Hepatocyte growth factor receptor (Homo sapiens), P08581 [Y1235D]; test: as §1; details: at 10 µM
# [4] = molecular target: Hepatocyte growth factor receptor (Homo sapiens, UniProt P08581); test: as §1; details: at 10 µM
# [5] = molecular target: Cyclin-dependent kinase 14 (Homo sapiens) (UniProt O94921); test: Selectivity interaction (KinomeScan (DiscoverX)) EUB0000655a CDK14; details: at 10 µM
# [6] = molecular target: T2, 5-hydroxytryptamine receptor 1A (Homo sapiens) (UniProt P08908); test: Selectivity interaction (GPCR panel (PDSP screen)) EUB0001079a HTR1A; details: at 10 µM
# T2 sequence (whole entry): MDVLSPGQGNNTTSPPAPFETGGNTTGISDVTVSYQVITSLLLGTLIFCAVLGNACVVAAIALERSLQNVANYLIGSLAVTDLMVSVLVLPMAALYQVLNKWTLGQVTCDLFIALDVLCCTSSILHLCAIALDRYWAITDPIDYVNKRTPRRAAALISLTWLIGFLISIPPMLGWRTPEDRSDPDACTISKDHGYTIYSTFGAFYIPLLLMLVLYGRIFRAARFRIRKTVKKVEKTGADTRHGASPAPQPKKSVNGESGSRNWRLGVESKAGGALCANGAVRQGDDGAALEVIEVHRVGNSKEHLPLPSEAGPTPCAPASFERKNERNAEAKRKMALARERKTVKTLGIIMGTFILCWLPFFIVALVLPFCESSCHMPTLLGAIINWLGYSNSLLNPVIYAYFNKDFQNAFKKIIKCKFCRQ
# [7] = molecular target: T3, Activin receptor type-1B (Homo sapiens) (UniProt P36896); test: Selectivity interaction (KinomeScan (DiscoverX)) EUB0001079a ACVR1B; details: at 1 µM
# T3 sequence (whole entry): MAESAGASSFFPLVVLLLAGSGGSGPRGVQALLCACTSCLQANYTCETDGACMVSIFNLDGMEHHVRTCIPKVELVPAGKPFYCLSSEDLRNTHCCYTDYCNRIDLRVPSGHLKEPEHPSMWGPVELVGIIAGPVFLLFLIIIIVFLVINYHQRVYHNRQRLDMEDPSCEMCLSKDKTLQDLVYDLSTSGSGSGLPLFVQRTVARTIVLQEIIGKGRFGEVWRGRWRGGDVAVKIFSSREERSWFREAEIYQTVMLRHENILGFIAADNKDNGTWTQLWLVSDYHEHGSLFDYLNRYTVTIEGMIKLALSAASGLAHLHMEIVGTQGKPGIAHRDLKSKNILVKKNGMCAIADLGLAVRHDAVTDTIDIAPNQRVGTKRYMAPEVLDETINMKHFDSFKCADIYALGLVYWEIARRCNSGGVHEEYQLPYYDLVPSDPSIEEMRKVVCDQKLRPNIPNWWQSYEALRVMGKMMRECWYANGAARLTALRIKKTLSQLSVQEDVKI
# [8] = molecular target: Cholecystokinin receptor type A (Homo sapiens, UniProt P32238); test: Selectivity interaction (Cholecystokinin A receptor binding assay, human recombinant ) EUB0000877a CCKAR
# [9] = molecular target: cAMP-dependent protein kinase catalytic subunit gamma (Homo sapiens) (UniProt P22612); test: Selectivity interaction (LanthaScreen Eu Kinase Binding Assay) EUB0001632a PRKACG; details: at 10 µM
# Chain of cAMP-dependent protein kinase catalytic subunit gamma (Homo sapiens) (P22612 2-351 limits assumed): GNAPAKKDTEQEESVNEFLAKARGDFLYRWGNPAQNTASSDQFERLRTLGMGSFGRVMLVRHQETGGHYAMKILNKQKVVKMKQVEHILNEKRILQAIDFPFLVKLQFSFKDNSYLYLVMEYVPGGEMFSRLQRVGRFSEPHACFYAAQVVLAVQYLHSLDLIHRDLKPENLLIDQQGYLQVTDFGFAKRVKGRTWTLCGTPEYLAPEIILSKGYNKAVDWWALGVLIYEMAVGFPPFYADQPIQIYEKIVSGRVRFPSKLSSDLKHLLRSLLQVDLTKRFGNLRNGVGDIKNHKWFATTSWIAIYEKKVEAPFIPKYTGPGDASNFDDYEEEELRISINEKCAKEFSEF
# Chain of Cyclin-dependent kinase 14 (Homo sapiens) (O94921 whole entry): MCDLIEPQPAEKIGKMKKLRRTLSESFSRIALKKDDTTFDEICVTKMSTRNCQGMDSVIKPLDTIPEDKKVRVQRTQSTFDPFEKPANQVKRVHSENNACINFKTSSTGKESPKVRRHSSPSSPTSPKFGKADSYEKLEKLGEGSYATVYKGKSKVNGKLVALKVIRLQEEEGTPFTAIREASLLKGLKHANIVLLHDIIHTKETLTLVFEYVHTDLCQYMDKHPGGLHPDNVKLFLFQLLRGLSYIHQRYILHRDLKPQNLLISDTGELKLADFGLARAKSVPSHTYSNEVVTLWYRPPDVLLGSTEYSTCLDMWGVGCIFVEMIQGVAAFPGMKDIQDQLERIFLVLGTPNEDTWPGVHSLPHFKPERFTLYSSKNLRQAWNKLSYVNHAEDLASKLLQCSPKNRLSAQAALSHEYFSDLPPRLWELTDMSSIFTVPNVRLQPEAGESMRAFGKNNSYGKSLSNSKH
# Chain of Hepatocyte growth factor receptor (P08581 whole entry): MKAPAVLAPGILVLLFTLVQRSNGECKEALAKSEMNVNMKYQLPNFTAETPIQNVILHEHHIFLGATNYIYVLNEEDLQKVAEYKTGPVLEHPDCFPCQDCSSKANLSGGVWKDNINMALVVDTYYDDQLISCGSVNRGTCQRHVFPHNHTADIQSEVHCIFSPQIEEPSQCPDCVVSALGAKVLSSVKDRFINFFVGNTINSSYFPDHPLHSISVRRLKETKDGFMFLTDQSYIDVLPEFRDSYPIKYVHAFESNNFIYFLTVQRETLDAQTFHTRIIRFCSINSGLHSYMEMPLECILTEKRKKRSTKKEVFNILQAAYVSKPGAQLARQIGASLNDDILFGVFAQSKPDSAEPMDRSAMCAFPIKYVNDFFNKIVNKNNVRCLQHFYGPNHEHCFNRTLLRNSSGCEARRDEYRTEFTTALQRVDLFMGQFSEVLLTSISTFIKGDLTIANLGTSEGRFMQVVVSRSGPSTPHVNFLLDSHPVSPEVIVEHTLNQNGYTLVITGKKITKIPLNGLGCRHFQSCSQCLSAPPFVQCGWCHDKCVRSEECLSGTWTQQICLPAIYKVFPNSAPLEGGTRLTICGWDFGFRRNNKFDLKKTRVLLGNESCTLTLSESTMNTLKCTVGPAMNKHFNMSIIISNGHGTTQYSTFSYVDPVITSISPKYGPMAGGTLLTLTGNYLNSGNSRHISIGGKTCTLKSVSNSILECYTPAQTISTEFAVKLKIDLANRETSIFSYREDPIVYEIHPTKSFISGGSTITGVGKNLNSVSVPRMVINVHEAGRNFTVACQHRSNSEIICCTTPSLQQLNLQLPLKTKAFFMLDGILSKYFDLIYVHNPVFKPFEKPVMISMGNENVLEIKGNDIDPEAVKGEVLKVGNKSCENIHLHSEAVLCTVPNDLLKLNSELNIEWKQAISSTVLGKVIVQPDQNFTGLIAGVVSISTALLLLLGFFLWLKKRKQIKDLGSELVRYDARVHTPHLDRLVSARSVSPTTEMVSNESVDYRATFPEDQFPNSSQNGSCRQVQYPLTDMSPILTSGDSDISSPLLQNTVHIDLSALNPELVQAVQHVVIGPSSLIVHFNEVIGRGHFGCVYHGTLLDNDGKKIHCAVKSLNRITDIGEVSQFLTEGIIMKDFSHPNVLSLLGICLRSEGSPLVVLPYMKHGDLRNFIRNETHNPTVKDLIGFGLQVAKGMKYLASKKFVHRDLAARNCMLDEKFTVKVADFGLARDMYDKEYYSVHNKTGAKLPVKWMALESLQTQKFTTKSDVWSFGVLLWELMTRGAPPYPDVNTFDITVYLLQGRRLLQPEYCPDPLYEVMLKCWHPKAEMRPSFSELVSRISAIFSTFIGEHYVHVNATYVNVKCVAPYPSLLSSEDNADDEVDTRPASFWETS
# Chain of Hepatocyte growth factor receptor (Homo sapiens), P08581 [Y1235D] (P08581 whole entry Y1235D): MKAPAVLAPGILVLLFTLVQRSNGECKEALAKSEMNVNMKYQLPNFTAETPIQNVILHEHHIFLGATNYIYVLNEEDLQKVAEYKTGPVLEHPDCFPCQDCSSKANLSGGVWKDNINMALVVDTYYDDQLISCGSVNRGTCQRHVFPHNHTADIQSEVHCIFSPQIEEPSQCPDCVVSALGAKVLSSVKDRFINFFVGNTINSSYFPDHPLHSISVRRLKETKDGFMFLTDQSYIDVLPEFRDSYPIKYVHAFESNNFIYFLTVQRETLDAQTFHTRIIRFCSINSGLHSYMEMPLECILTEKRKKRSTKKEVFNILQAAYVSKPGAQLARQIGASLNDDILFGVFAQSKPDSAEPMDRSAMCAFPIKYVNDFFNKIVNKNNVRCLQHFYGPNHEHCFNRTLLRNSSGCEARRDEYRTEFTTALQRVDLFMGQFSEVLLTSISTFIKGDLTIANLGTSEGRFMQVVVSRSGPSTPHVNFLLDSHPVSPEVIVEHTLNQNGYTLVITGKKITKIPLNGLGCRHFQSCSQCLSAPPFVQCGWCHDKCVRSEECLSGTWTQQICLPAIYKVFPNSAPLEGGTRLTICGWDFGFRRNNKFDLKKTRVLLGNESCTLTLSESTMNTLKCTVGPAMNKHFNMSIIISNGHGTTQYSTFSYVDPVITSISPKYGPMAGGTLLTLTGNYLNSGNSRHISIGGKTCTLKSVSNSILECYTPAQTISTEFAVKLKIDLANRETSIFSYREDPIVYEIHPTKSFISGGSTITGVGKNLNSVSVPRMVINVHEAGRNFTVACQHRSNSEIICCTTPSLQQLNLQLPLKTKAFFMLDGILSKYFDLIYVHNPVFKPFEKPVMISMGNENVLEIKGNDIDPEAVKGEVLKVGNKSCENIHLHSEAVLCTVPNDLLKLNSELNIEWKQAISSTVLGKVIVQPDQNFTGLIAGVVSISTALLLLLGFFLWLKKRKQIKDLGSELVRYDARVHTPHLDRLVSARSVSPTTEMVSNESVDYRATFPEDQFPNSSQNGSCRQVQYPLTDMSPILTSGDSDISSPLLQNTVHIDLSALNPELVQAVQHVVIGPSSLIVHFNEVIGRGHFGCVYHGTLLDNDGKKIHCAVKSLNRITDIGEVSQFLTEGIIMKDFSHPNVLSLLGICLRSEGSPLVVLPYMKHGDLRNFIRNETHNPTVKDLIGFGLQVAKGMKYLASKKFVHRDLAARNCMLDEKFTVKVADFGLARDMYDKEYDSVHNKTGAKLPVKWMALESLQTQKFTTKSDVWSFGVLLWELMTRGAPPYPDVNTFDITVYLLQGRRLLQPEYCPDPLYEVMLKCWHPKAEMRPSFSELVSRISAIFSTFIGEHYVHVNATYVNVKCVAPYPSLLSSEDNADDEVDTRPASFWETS
# Chain of Cholecystokinin receptor type A (P32238 whole entry): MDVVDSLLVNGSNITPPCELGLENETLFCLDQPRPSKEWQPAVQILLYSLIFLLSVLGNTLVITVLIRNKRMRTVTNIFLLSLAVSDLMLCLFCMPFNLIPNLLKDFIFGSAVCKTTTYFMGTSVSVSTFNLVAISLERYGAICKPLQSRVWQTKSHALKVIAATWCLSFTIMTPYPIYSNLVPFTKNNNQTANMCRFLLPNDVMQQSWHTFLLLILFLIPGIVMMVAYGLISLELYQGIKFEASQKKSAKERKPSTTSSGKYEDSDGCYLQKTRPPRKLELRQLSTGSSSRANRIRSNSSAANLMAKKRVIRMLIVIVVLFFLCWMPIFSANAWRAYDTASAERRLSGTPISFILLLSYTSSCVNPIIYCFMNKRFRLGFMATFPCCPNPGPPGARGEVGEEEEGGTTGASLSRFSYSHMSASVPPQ
compound,measurement,setting,value
CN(C)C/C=C/C(=O)Nc1ccc(C(=O)N2CCCC(Nc3ncc(Cl)c(-c4c[nH]c5ccccc45)n3)C2)cc1 (centres undefined),% of control,[1],93%
CN(C)CCOc1ccc(-c2nc(-c3ccncc3)c(-c3ccc4c(c3)CC/C4=N\O)[nH]2)cc1,% of control,[2],64%
same,% of control,[3],64%
same,% of control,[4],50%
same,% of control,[5],100%
Nc1cnc(N2CCc3cc(S(=O)(=O)Nc4c(F)cc(Cl)cc4F)cc(N4CCCC4=O)c32)nc1 [TP-020n],% of inhibition,[6],4.45%
same,% of control,[7],96%
CCC(=O)N1CC[C@H](Nc2ncnc3c2CN(c2cnc(OC)c(C(F)(F)F)c2)CC3)C1 [LENIOLISIB],pIC50,[8],< 4.52
Cn1cc(-n2cnc3c(NCc4nc5cc(Cl)c(Cl)cc5[nH]4)nc(N4CCOCC4)nc32)cn1,% of inhibition,[9],-38.1%
